Reference: the supplement of paper PMC4862054

Tests used:
Assay in all cases: normalised viability (% of control), CellTiter-Blue; higher = more viable cells (about 100 = DMSO control)
Settings in all cases: incubation time: 72 h
DU-4475 [1] = test system: DU-4475
Summary of the method: (§1)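 Breast cancer cell lines were treated for 72 h in 384-well format and measured by CellTiter-Blue fluorescence at 560/590 nm. Results were normalised per plate to vehicle (100) and a positive kill control (0). The entry is normalised viability at a single listed concentration of the series.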

CAL-148 [2] = test system: CAL-148
Summary of the method: as §1

CAL-51 [3] = test system: CAL-51
Summary of the method: as §1

MDA-MB-231 = test system: MDA-MB-231
Summary of the method: as §1

HCC1599 [4] = test system: HCC1599
Summary of the method: as §1

HCC1937 [5] = test system: HCC1937
Summary of the method: as §1

BT-549 [6] = test system: BT-549
Summary of the method: as §1

MFM-223 [7] = test system: MFM-223
Summary of the method: as §1

HCC1143 [8] = test system: HCC1143
Summary of the method: as §1

MDA-MB-436 [9] = test system: MDA-MB-436
Summary of the method: as §1

CAL-120 = test system: CAL-120
Summary of the method: as §1

DU-4475 [10] = test system: DU-4475; remark: listed apart in the source
Summary of the method: as §1

CAL-148 [11] = test system: CAL-148; remark: listed apart in the source
Summary of the method: as §1

CAL-51 [12] = test system: CAL-51; remark: listed apart in the source
Summary of the method: as §1

HDQ-P1 = test system: HDQ-P1
Summary of the method: as §1

HCC1599 [13] = test system: HCC1599; remark: listed apart in the source
Summary of the method: as §1

HCC1937 [14] = test system: HCC1937; remark: listed apart in the source
Summary of the method: as §1

BT-549 [15] = test system: BT-549; remark: listed apart in the source
Summary of the method: as §1

Hs578T = test system: Hs578T
Summary of the method: as §1

MFM-223 [16] = test system: MFM-223; remark: listed apart in the source
Summary of the method: as §1

BT-474 = test system: BT-474
Summary of the method: as §1

CAL-85-1 = test system: CAL-85-1
Summary of the method: as §1

HCC1143 [17] = test system: HCC1143; remark: listed apart in the source
Summary of the method: as §1

SK-BR-3 = test system: SK-BR-3
Summary of the method: as §1

MDA-MB-453 = test system: MDA-MB-453
Summary of the method: as §1

MDA-MB-436 [18] = test system: MDA-MB-436; remark: listed apart in the source
Summary of the method: as §1

MDA-MB-468 = test system: MDA-MB-468
Summary of the method: as §1

Cn1cnc2c(F)c(Nc3ccc(Br)cc3F)c(C(=O)NOCCO)cc21 [MEK-162]
Settings	normalised viability [%]
BT-474, 1 nM	119
BT-474, 100 nM	115
BT-474, 1000 nM	119
BT-549 [6], 10 nM	107
BT-549 [15], 1 nM	100
BT-549 [15], 100 nM	110
BT-549 [15], 1000 nM	108
CAL-51 [3], 1 nM	111
CAL-51 [12], 0.3 nM	112
CAL-51 [12], 3 nM	104
CAL-51 [12], 10 nM	100
CAL-85-1, 0.3 nM	94.6
CAL-85-1, 3 nM	95.1
CAL-85-1, 10 nM	99.1
CAL-120, 1 nM	98.1
CAL-120, 100 nM	93.8
CAL-120, 1000 nM	93.4
CAL-148 [2], 1 nM	91.5
CAL-148 [11], 0.3 nM	94
CAL-148 [11], 3 nM	91
CAL-148 [11], 10 nM	97.2
DU-4475 [1], 1 nM	97.6
DU-4475 [10], 0.3 nM	100
DU-4475 [10], 3 nM	94
DU-4475 [10], 10 nM	78.1
HCC1143 [8], 10 nM	80.6
HCC1143 [17], 1 nM	100
HCC1143 [17], 100 nM	70.7
HCC1143 [17], 1000 nM	61.8
HCC1599 [4], 10 nM	111
HCC1599 [13], 1 nM	90.5
HCC1599 [13], 100 nM	88.4
HCC1599 [13], 1000 nM	76.5
HCC1937 [5], 10 nM	95.1
HCC1937 [14], 1 nM	72.6
HCC1937 [14], 100 nM	94.8
HCC1937 [14], 1000 nM	88.5
HDQ-P1, 0.3 nM	110
HDQ-P1, 3 nM	105
HDQ-P1, 10 nM	113
Hs578T, 1 nM	126
Hs578T, 100 nM	102
Hs578T, 1000 nM	97
MDA-MB-231, 10 nM	92.5
MDA-MB-436 [9], 10 nM	126
MDA-MB-436 [18], 1 nM	114
MDA-MB-436 [18], 100 nM	76.4
MDA-MB-436 [18], 1000 nM	99.6
MDA-MB-453, 0.3 nM	115
MDA-MB-453, 3 nM	94
MDA-MB-453, 10 nM	110
MDA-MB-468, 1 nM	107
MDA-MB-468, 100 nM	99.5
MDA-MB-468, 1000 nM	75.2
MFM-223 [7], 10 nM	87.9
MFM-223 [16], 1 nM	90.8
MFM-223 [16], 100 nM	89.4
MFM-223 [16], 1000 nM	94.5
SK-BR-3, 1 nM	111
SK-BR-3, 100 nM	111
SK-BR-3, 1000 nM	102

CCOc1cc2ncc(C#N)c(Nc3ccc(OCc4ccccn4)c(Cl)c3)c2cc1NC(=O)/C=C/CN(C)C [Neratinib]
Settings	normalised viability [%]
BT-474, 1 nM	105
BT-474, 100 nM	120
BT-474, 1000 nM	91.2
BT-549 [6], 10 nM	101
BT-549 [15], 1 nM	93.7
BT-549 [15], 100 nM	82
BT-549 [15], 1000 nM	93.8
CAL-51 [3], 1 nM	97.1
CAL-51 [12], 0.3 nM	92
CAL-51 [12], 3 nM	90.5
CAL-51 [12], 10 nM	93
CAL-85-1, 0.3 nM	92.7
CAL-85-1, 3 nM	100
CAL-85-1, 10 nM	97.1
CAL-120, 1 nM	95.7
CAL-120, 100 nM	76
CAL-120, 1000 nM	82.7
CAL-148 [2], 1 nM	93.5
CAL-148 [11], 0.3 nM	86.6
CAL-148 [11], 3 nM	78.6
CAL-148 [11], 10 nM	93.9
DU-4475 [1], 1 nM	97.7
DU-4475 [10], 0.3 nM	103
DU-4475 [10], 3 nM	95.4
DU-4475 [10], 10 nM	101
HCC1143 [8], 10 nM	89.1
HCC1143 [17], 1 nM	97.1
HCC1143 [17], 100 nM	91.9
HCC1143 [17], 1000 nM	84.5
HCC1599 [4], 10 nM	99.7
HCC1599 [13], 1 nM	108
HCC1599 [13], 100 nM	106
HCC1599 [13], 1000 nM	90.1
HCC1937 [5], 10 nM	106
HCC1937 [14], 1 nM	80.3
HCC1937 [14], 100 nM	99.5
HCC1937 [14], 1000 nM	96.3
HDQ-P1, 0.3 nM	123
HDQ-P1, 3 nM	115
HDQ-P1, 10 nM	106
Hs578T, 1 nM	98.6
Hs578T, 100 nM	88.5
Hs578T, 1000 nM	93.9
MDA-MB-231, 10 nM	118
MDA-MB-436 [9], 10 nM	117
MDA-MB-436 [18], 1 nM	104
MDA-MB-436 [18], 100 nM	108
MDA-MB-436 [18], 1000 nM	110
MDA-MB-453, 0.3 nM	106
MDA-MB-453, 3 nM	99
MDA-MB-453, 10 nM	88.3
MDA-MB-468, 1 nM	110
MDA-MB-468, 100 nM	114
MDA-MB-468, 1000 nM	106
MFM-223 [7], 10 nM	87.9
MFM-223 [16], 1 nM	99.2
MFM-223 [16], 100 nM	87.7
MFM-223 [16], 1000 nM	91.6
SK-BR-3, 1 nM	107
SK-BR-3, 100 nM	95.8
SK-BR-3, 1000 nM	114

COc1ccc(C2=N[C@@H](c3ccc(Cl)cc3)[C@@H](c3ccc(Cl)cc3)N2C(=O)N2CCNC(=O)C2)c(OC(C)C)c1 [Nutlin-3]
Settings	normalised viability [%]
BT-474, 10 nM	120
BT-474, 1000 nM	114
BT-474, 10000 nM	90.3
BT-549 [6], 100 nM	105
BT-549 [15], 10 nM	91.3
BT-549 [15], 1000 nM	98.4
BT-549 [15], 10000 nM	103
CAL-51 [3], 10 nM	94.3
CAL-51 [12], 3 nM	101
CAL-51 [12], 30 nM	98.6
CAL-51 [12], 100 nM	97.5
CAL-85-1, 3 nM	84.5
CAL-85-1, 30 nM	78.5
CAL-85-1, 100 nM	90.4
CAL-120, 10 nM	82.8
CAL-120, 1000 nM	85.2
CAL-120, 10000 nM	96.6
CAL-148 [2], 10 nM	95.6
CAL-148 [11], 3 nM	86
CAL-148 [11], 30 nM	89.8
CAL-148 [11], 100 nM	95.6
DU-4475 [1], 10 nM	95.4
DU-4475 [10], 3 nM	85.7
DU-4475 [10], 30 nM	90.3
DU-4475 [10], 100 nM	87.4
HCC1143 [8], 100 nM	84
HCC1143 [17], 10 nM	77.6
HCC1143 [17], 1000 nM	82.8
HCC1143 [17], 10000 nM	82.9
HCC1599 [4], 100 nM	118
HCC1599 [13], 10 nM	96.1
HCC1599 [13], 1000 nM	104
HCC1599 [13], 10000 nM	97.4
HCC1937 [5], 100 nM	106
HCC1937 [14], 10 nM	81.3
HCC1937 [14], 1000 nM	98.7
HCC1937 [14], 10000 nM	113
HDQ-P1, 3 nM	107
HDQ-P1, 30 nM	112
HDQ-P1, 100 nM	107
Hs578T, 10 nM	105
Hs578T, 1000 nM	117
Hs578T, 10000 nM	100
MDA-MB-231, 100 nM	88.3
MDA-MB-436 [9], 100 nM	97.9
MDA-MB-436 [18], 10 nM	108
MDA-MB-436 [18], 1000 nM	82.3
MDA-MB-436 [18], 10000 nM	110
MDA-MB-453, 3 nM	104
MDA-MB-453, 30 nM	92
MDA-MB-453, 100 nM	99.8
MDA-MB-468, 10 nM	104
MDA-MB-468, 1000 nM	104
MDA-MB-468, 10000 nM	90.1
MFM-223 [7], 100 nM	83.2
MFM-223 [16], 10 nM	87.5
MFM-223 [16], 1000 nM	83.2
MFM-223 [16], 10000 nM	81.6
SK-BR-3, 10 nM	103
SK-BR-3, 1000 nM	98.1
SK-BR-3, 10000 nM	101
